According to US4194006A, “Therapeutic application of acetyl-d,l-carnitine and other acyl derivatives of d,l-carnitine” (priority 1977, dated 1980):
Like-named read-outs stand apart in the source and are kept apart here.

Key:
female rats = experiment: antifatigue effect: rota-rod; format: in vivo, rat; details: Rattus norvegicus, ip, 0.25 h, read-out: percentage of animals staying on the rota-rod more than 180 seconds; for responders at 300 mg/kg: 300 mg/kg i.p.; for responders at 400 mg/kg: 400 mg/kg i.p.; for responders at 600 mg/kg: 600 mg/kg i.p.
Description: The antifatigue effect was also examined with the following results. The antifatigue effect was investigated by administering the compounds of the formula (I) according to the present application to female rats intraperitoneally in saline solution and saline solution alone to the controls by the same route. Every 15 minutes (sessions) after treatment, the animals were placed on a 6 cm diameter rod, rotating at 16 r.p.m. The percentage of the animals capable of staying on the rota-rod for a duration of more than 180 seconds was then recorded.

isolated rabbit hearts [1] = experiment: cardiokinetic effect on isolated heart (Langendorff): contractile force after anoxia, positive inotropic effect; details: 10 minutes from interruption of anoxic period
Description: (§1) The cardiokinetic effect on isolated heart was also investigated as follows. Rabbit hearts isolated by the Langendorff method were perfused with oxygenized ringer solution at 38.2° C. The isometric contractions, electrocardiogram and coronary flow were recorded using a "Battaglia-Rangoni" polygraph. By removing the oxygen from the perfusion fluid, metabolic damage was induced in the cardia muscle, up to an 80% reduction in the cardiac contractile force.
(§2) Under these conditions of prolonged anoxia the aerobic glycolysis of the myocardium is slowed down, accompanied by the storage of acid catabolites due to both the accumulation of pyruvic acid and its conversion to lactic acid which cannot be utilized because of the depression of pyridine enzymes, such as LDH (lactodehydrogenase). This has repercussions on the anaerobic glycolysis affecting an ever increasing number of enzymes, accompanied by a progressive and increasingly critical exhaustion of the myocardium. Thus a whole series of cardiac muscle fatigue levels occurs which can be observed by the behavior of the examined parameters, namely the contractile force, coronary flow, heart rate and cardiac rhythm. As soon as the contractile force was reduced by 80%, the perfusion fluid was once again oxygenized either without adding other compounds (controls) or with the addition of the compounds under examination.
Table 3 below gives the percentage values of the contractile force of the heart, showing a positive inotropic effect, calculated after 10 minutes from the interruption of the anoxic period (myocardial restoration).

isolated rat atrium = experiment: antiarrhythmic effect, isolated rat atrium method of M. Libonati and G. Segre; details: Rattus norvegicus; for inhibition at 0.1 µg/mL / activation at 0.1 µg/mL: 1·10^-4 g/lt; for inhibition at 0.1 µg/mL / inhibition at 0.01 µg/mL / inhibition at 0.001 µg/mL: decrease; for activation at 0.1 µg/mL / activation at 0.01 µg/mL / activation at 0.001 µg/mL: increase; for inhibition at 0.01 µg/mL / activation at 0.01 µg/mL: 1·10^-5 g/lt; for inhibition at 0.001 µg/mL / activation at 0.001 µg/mL: 1·10^-6 g/lt
isolated rabbit hearts [2] = experiment: coronary vasodilator effect: coronary flow, isolated heart (Langendorff)
Description: as §1, §2

[3] = session 6 (every 15 minutes), * p < 0.05
[4] = read-out: Mean percent variation versus controls: excitability (-%)
[5] = read-out: Mean percent variation versus controls: frequency max (-%)
[6] = read-out: Mean percent variation versus controls: refractory period (+%)
[7] = read-out: Mean percent variation versus controls: rheobase (+%)

Compound	responders at 300 mg/kg (female rats; session 1 (every 15 minutes)) [%]	responders at 300 mg/kg (female rats; session 2 (every 15 minutes)) [%]	responders at 300 mg/kg (female rats; session 3 (every 15 minutes)) [%]	responders at 300 mg/kg (female rats; session 4 (every 15 minutes)) [%]	responders at 300 mg/kg (female rats; session 5 (every 15 minutes)) [%]	responders at 300 mg/kg (female rats; session 6 (every 15 minutes)) [%]	responders at 400 mg/kg (female rats; session 1 (every 15 minutes)) [%]	responders at 400 mg/kg (female rats; session 2 (every 15 minutes)) [%]	responders at 400 mg/kg (female rats; session 3 (every 15 minutes)) [%]	responders at 400 mg/kg (female rats; session 4 (every 15 minutes)) [%]	responders at 400 mg/kg (female rats; session 5 (every 15 minutes)) [%]	responders at 400 mg/kg (female rats; [3]) [%]	responders at 600 mg/kg (female rats; session 1 (every 15 minutes)) [%]	responders at 600 mg/kg (female rats; session 2 (every 15 minutes)) [%]	responders at 600 mg/kg (female rats; session 3 (every 15 minutes)) [%]	responders at 600 mg/kg (female rats; session 4 (every 15 minutes)) [%]	responders at 600 mg/kg (female rats; session 5 (every 15 minutes)) [%]	responders at 600 mg/kg (female rats; [3]) [%]	Contractile force, Mean ± S.E. (isolated rabbit hearts [1]; 1·10^-5 g/lt) [%]	Contractile force, Mean ± S.E. (isolated rabbit hearts [1]; 1·10^-6 g/lt) [%]	other results
CCCCCCCC(=O)OC(CC(=O)[O-])C[N+](C)(C)C (racemic) [octanoyl-d,l-carnitine]	0	0	0	0	10	10	0	0	0	0	10	10	0	0	10	10	10	30	37.8 ± 4.62	25.2 ± 3.60	Contractile force, Mean ± S.E. (isolated rabbit hearts [1]; 5·10^-6 g/lt): 29.8 ± 4.13%; inhibition at 0.1 µg/mL (isolated rat atrium; [4]): 47.8%; inhibition at 0.1 µg/mL (isolated rat atrium; [5]): 17.2%; activation at 0.1 µg/mL (isolated rat atrium; [6]): 39.8%; activation at 0.1 µg/mL (isolated rat atrium; [7]): 4.16%; inhibition at 0.01 µg/mL (isolated rat atrium; [4]): 28.6%; inhibition at 0.01 µg/mL (isolated rat atrium; [5]): 36.2%; activation at 0.01 µg/mL (isolated rat atrium; [6]): 16.5%; activation at 0.01 µg/mL (isolated rat atrium; [7]): 0%; inhibition at 0.001 µg/mL (isolated rat atrium; [4]): 12.7%; inhibition at 0.001 µg/mL (isolated rat atrium; [5]): 10.9%; activation at 0.001 µg/mL (isolated rat atrium; [6]): 5.73%; activation at 0.001 µg/mL (isolated rat atrium; [7]): 9.46%; Coronary flow, Mean ± S.E. (isolated rabbit hearts [2]; 1·10^-5 g/lt): 84.71 ± 6.20%; Coronary flow, Mean ± S.E. (isolated rabbit hearts [2]; 1·10^-6 g/lt): 76.24 ± 6.13%; Coronary flow, Mean ± S.E. (isolated rabbit hearts [2]; 5·10^-6 g/lt): 76.00 ± 9.16%
CCCCCC(=O)OC(CC(=O)[O-])C[N+](C)(C)C (racemic) [hexanoyl-d,l-carnitine]	0	0	0	0	10	10	0	0	0	0	10	10	0	0	10	10	20	30	38.0 ± 4.80	24.2 ± 3.88	Contractile force, Mean ± S.E. (isolated rabbit hearts [1]; 5·10^-6 g/lt): 28.8 ± 3.16%; inhibition at 0.1 µg/mL (isolated rat atrium; [4]): 26.3%; inhibition at 0.1 µg/mL (isolated rat atrium; [5]): 25.1%; activation at 0.1 µg/mL (isolated rat atrium; [6]): 21.7%; activation at 0.1 µg/mL (isolated rat atrium; [7]): 21.7%; inhibition at 0.01 µg/mL (isolated rat atrium; [4]): 18.2%; inhibition at 0.01 µg/mL (isolated rat atrium; [5]): 12.3%; activation at 0.01 µg/mL (isolated rat atrium; [6]): 12.7%; activation at 0.01 µg/mL (isolated rat atrium; [7]): 10.1%; inhibition at 0.001 µg/mL (isolated rat atrium; [4]): 12.4%; inhibition at 0.001 µg/mL (isolated rat atrium; [5]): 8.71%; activation at 0.001 µg/mL (isolated rat atrium; [6]): 9.04%; activation at 0.001 µg/mL (isolated rat atrium; [7]): 6.2%; Coronary flow, Mean ± S.E. (isolated rabbit hearts [2]; 1·10^-5 g/lt): 84.08 ± 5.14%; Coronary flow, Mean ± S.E. (isolated rabbit hearts [2]; 1·10^-6 g/lt): 76.25 ± 4.75%; Coronary flow, Mean ± S.E. (isolated rabbit hearts [2]; 5·10^-6 g/lt): 75.28 ± 8.36%
CCCC(=O)OC(CC(=O)[O-])C[N+](C)(C)C (racemic) [butyryl-d,l-carnitine]	0	0	0	0	0	10	0	0	0	10	10	20	0	0	10	20	20	40	51.5 ± 5.02	30.6 ± 4.51	Contractile force, Mean ± S.E. (isolated rabbit hearts [1]; 5·10^-6 g/lt): 35.6 ± 6.19%; inhibition at 0.1 µg/mL (isolated rat atrium; [4]): 63.7%; inhibition at 0.1 µg/mL (isolated rat atrium; [5]): 62.3%; activation at 0.1 µg/mL (isolated rat atrium; [6]): 38%; activation at 0.1 µg/mL (isolated rat atrium; [7]): 55%; inhibition at 0.01 µg/mL (isolated rat atrium; [4]): 31.9%; inhibition at 0.01 µg/mL (isolated rat atrium; [5]): 30.4%; activation at 0.01 µg/mL (isolated rat atrium; [6]): 25.9%; activation at 0.01 µg/mL (isolated rat atrium; [7]): 40.8%; inhibition at 0.001 µg/mL (isolated rat atrium; [4]): 12.9%; inhibition at 0.001 µg/mL (isolated rat atrium; [5]): 24.8%; activation at 0.001 µg/mL (isolated rat atrium; [6]): 18.2%; activation at 0.001 µg/mL (isolated rat atrium; [7]): 28.3%; Coronary flow, Mean ± S.E. (isolated rabbit hearts [2]; 1·10^-5 g/lt): 90.12 ± 8.18%; Coronary flow, Mean ± S.E. (isolated rabbit hearts [2]; 1·10^-6 g/lt): 74.01 ± 6.19%
CCCCCCCCCC(=O)OC(CC(=O)[O-])C[N+](C)(C)C (racemic) [decanoyl-d,l-carnitine]	0	0	0	10	10	10	0	0	0	10	10	10	0	0	0	10	10	20	36.3 ± 6.53	26.9 ± 5.02	Contractile force, Mean ± S.E. (isolated rabbit hearts [1]; 5·10^-6 g/lt): 29.1 ± 3.12%; inhibition at 0.1 µg/mL (isolated rat atrium; [4]): 25.2%; inhibition at 0.1 µg/mL (isolated rat atrium; [5]): 24.8%; activation at 0.1 µg/mL (isolated rat atrium; [6]): 21.6%; activation at 0.1 µg/mL (isolated rat atrium; [7]): 21.2%; inhibition at 0.01 µg/mL (isolated rat atrium; [4]): 17.2%; inhibition at 0.01 µg/mL (isolated rat atrium; [5]): 12%; activation at 0.01 µg/mL (isolated rat atrium; [6]): 10.3%; activation at 0.01 µg/mL (isolated rat atrium; [7]): 9.54%; inhibition at 0.001 µg/mL (isolated rat atrium; [4]): 0%; inhibition at 0.001 µg/mL (isolated rat atrium; [5]): 8.66%; activation at 0.001 µg/mL (isolated rat atrium; [6]): 9.14%; activation at 0.001 µg/mL (isolated rat atrium; [7]): 3.12%; Coronary flow, Mean ± S.E. (isolated rabbit hearts [2]; 1·10^-5 g/lt): 83.21 ± 5.70%; Coronary flow, Mean ± S.E. (isolated rabbit hearts [2]; 1·10^-6 g/lt): 76.30 ± 9.42%; Coronary flow, Mean ± S.E. (isolated rabbit hearts [2]; 5·10^-6 g/lt): 72.60 ± 12.4%
